Experiments:
[1] = tested on: HEC-1B xenograft tumor model; assay type: in vivo; conditions: 10 mg/kg Q14D i.p.
Protocol: The in vivo efficacy was evaluated in tumor xenograft models in nude mice with established human tumor cell lines at the MTD and sub-MTD dosages. Tumor cells were cultivated according to ATCC protocols in recommended media contained 10% FCS. Cells were harvested for transplantation in a subconfluent (70%) state. The volume of implantation was 100 μl for mice. When the tumors were approximately in size of 25-50 mm^2, the animals were randomized to treatment and control groups and treatment was started. Treatment of each animal was based on individual body weight. The optimal formulation, application route and schedule were used for each compound (see table 2). Oral administration (p.o.) was carried out via a gastric tube. The oral application volumes were 10 ml/kg and the intravenous application volumes were 10 ml/kg. Tumor area (product of the longest diameter and its perpendicular) using a calliper. The animal body weight was monitored as a measure for treatment-related toxicity. Measurement of tumor area and body weight was performed 2-3 times weekly. […] Treatment responses were evaluated by means of the clinically-used RECIST criteria (complete response, partial response, stable disease and progressive disease) and response rates were calculated accordingly (RR=number of animals with complete and partial response).

[2] = tested on: MFE-280 xenograft tumor model; experiment: In vivo efficacy in MFE-280 xenograft tumor model; design: species or system nude mice; conditions: doxorubicin group
Protocol: The in vivo efficacy was evaluated in tumor xenograft models in nude mice with established human tumor cell lines at the MTD and sub-MTD dosages. Tumor cells were cultivated according to ATCC protocols in recommended media contained 10% FCS. Cells were harvested for transplantation in a subconfluent (70%) state. The volume of implantation was 100 μl for mice. When the tumors were approximately in size of 25-50 mm^2, the animals were randomized to treatment and control groups and treatment was started. Treatment of each animal was based on individual body weight. The optimal formulation, application route and schedule were used for each compound (see table 2). Oral administration (p.o.) was carried out via a gastric tube. The oral application volumes were 10 ml/kg and the intravenous application volumes were 10 ml/kg. Tumor area (product of the longest diameter and its perpendicular) using a calliper. The animal body weight was monitored as a measure for treatment-related toxicity. Measurement of tumor area and body weight was performed 2-3 times weekly. T/C ratios (Treatment/Control) were calculated with final tumor areas. Treatment responses were evaluated by means of the clinically-used RECIST criteria (complete response, partial response, stable disease and progressive disease) and response rates were calculated accordingly (RR=number of animals with complete and partial response).

[3] = dose not printed (i.p. Q14D per Table 2)

COc1cccc2c1C(=O)c1c(O)c3c(c(O)c1C2=O)C[C@@](O)(C(=O)CO)C[C@@H]3O[C@H]1C[C@H](N)[C@H](O)[C@H](C)O1 [Doxorubicin]
PD (progressive disease, number of tumors) [1]: 6 | Response rate [1]: 0% | T/C area (Treatment/Control ratio, mean tumor areas) ([1]; study end): 0.56 | T/C weight (Treatment/Control ratio, final tumor weights) ([1]; study end): 0.48 | CR (%) ([2]; dose not given): 0% | PD (%) ([2]; dose not given): 37.5% | PR (%) ([2]; dose not given): 12.5% | RR (%) ([2]; dose not given): 12.5% | T/C (tumor area) [2, 3]: 0.51 | T/C (tumor weight) [2, 3]: 0.39

Reference: patent US20180042929A1, “USE OF SUBSTITUTED 2,3-DIHYDROIMIDAZO[1,2-C]QUINAZOLINES” (Bayer Pharma Aktiengesellschaft, priority 2015, published 2018)
